Results published in paper PMC6978363, “Chaperone mediated detection of small molecule target binding in cells” (Nature Communications, 2020).

Legend:
Test in all cases: biochemical
Conditions in all cases: read-out: % Inhibition (at 10mM)
NEK9 = NEK9 (Homo sapiens, UniProt Q8TD19)
PAK3 = PAK3 (Homo sapiens, UniProt O75914)
CDK1/cyclinB = CDK1/cyclinB (Homo sapiens, UniProt P06493)
ERK5 = molecular target: T1, ERK5 (Homo sapiens, UniProt Q13164)
T1 construct: gene MAPK7

Syk = Syk (Homo sapiens, UniProt P43405)
Flt3 = Flt3 (Homo sapiens, UniProt P36888)
CDKL5 = CDKL5 (Homo sapiens, UniProt O76039)
Fer = Fer (Homo sapiens, UniProt P16591)
NEK6 = NEK6 (Homo sapiens, UniProt Q9HC98)
PKC_iota = molecular target: T2, PKC_iota (Homo sapiens, UniProt P41743)
T2 construct: gene PRKCI

EphB4 = EphB4 (Homo sapiens, UniProt P54760)
PKG2 = molecular target: T3, PKG2 (Homo sapiens, UniProt Q13237)
T3 construct: gene PRKG2

Fes = Fes (Homo sapiens, UniProt P07332)
PRAK = molecular target: T4, PRAK (Homo sapiens, UniProt Q8IW41)
T4 construct: gene MAPKAPK5

Bmx = Bmx (Homo sapiens, UniProt P51813)
Kit = Kit (Homo sapiens, UniProt P10721)
CDK5/p35 = molecular target: T5, CDK5/p35 (Homo sapiens, UniProt Q00535)
T5 construct: p35
T5 sequence (Q00535 whole entry): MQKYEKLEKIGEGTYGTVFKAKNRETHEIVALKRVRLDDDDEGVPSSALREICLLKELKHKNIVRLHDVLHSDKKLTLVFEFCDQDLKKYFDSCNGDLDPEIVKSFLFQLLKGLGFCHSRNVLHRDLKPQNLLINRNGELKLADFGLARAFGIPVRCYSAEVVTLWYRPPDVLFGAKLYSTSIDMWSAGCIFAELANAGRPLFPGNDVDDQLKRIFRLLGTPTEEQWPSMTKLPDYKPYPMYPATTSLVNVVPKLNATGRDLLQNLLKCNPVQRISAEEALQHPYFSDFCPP
T5 sequence (Q15078 whole entry partner): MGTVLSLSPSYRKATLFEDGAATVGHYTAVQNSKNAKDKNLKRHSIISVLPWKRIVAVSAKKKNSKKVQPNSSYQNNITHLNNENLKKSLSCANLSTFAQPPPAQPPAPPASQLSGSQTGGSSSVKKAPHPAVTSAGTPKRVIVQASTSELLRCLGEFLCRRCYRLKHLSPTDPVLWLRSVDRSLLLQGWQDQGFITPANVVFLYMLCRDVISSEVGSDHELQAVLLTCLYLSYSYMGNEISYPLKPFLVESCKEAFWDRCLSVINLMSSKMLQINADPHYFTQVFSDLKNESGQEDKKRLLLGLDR

EphB1 = EphB1 (Homo sapiens, UniProt P54762)
Sequence of EphB1 (P54762 whole entry): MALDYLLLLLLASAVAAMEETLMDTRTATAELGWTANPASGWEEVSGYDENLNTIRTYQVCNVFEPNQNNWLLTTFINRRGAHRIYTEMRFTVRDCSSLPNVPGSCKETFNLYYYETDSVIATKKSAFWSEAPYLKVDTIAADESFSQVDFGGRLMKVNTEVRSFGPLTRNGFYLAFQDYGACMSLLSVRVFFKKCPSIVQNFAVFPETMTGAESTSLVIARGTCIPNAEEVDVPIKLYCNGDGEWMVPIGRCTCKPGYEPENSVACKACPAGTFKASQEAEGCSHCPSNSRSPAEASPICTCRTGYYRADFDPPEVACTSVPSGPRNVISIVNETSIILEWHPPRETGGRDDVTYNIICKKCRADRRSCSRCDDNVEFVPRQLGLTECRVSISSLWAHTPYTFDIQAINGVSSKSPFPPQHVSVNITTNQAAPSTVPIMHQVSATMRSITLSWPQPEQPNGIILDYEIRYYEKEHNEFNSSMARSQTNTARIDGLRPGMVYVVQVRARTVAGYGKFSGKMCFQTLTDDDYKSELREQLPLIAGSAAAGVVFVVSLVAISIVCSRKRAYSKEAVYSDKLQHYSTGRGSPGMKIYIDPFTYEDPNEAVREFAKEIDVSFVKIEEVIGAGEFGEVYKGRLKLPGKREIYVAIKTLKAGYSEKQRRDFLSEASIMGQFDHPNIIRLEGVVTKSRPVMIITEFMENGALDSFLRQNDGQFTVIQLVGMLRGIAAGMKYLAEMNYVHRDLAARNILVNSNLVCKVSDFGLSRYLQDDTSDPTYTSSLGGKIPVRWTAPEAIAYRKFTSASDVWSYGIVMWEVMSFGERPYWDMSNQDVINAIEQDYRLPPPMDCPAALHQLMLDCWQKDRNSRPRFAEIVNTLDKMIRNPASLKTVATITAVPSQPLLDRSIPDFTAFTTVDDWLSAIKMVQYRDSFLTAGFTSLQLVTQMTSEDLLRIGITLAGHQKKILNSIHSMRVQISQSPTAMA

PKC_gamma = molecular target: T6, PKC_gamma (Homo sapiens, UniProt P05129)
T6 construct: gene PRKCG

PKC_epsilon = molecular target: T7, PKC_epsilon (Homo sapiens, UniProt Q02156)
T7 construct: gene PRKCE
T7 sequence (Q02156 whole entry): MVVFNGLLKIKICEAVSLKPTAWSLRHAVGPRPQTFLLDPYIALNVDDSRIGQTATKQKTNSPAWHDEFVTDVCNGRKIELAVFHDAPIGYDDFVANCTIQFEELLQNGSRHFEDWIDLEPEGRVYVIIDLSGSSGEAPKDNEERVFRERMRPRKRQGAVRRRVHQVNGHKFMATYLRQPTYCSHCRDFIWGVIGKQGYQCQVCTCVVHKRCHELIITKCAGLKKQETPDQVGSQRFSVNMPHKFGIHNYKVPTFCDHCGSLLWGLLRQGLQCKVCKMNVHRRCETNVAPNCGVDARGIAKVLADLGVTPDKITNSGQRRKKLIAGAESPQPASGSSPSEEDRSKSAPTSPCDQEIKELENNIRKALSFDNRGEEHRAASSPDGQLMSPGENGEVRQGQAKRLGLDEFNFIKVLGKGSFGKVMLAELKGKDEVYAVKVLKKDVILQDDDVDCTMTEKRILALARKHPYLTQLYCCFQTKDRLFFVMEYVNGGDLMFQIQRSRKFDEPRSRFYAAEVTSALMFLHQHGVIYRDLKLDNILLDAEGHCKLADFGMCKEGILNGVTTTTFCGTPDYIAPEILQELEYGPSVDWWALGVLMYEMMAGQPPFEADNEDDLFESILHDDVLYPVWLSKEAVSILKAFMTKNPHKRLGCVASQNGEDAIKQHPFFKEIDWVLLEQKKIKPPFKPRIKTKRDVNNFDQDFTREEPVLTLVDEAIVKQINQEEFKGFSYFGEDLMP

Ret = Ret (Homo sapiens, UniProt P07949)
TrkB = molecular target: T8, TrkB (Homo sapiens, UniProt Q16620)
T8 construct: gene NTRK2
T8 sequence (Q16620 whole entry): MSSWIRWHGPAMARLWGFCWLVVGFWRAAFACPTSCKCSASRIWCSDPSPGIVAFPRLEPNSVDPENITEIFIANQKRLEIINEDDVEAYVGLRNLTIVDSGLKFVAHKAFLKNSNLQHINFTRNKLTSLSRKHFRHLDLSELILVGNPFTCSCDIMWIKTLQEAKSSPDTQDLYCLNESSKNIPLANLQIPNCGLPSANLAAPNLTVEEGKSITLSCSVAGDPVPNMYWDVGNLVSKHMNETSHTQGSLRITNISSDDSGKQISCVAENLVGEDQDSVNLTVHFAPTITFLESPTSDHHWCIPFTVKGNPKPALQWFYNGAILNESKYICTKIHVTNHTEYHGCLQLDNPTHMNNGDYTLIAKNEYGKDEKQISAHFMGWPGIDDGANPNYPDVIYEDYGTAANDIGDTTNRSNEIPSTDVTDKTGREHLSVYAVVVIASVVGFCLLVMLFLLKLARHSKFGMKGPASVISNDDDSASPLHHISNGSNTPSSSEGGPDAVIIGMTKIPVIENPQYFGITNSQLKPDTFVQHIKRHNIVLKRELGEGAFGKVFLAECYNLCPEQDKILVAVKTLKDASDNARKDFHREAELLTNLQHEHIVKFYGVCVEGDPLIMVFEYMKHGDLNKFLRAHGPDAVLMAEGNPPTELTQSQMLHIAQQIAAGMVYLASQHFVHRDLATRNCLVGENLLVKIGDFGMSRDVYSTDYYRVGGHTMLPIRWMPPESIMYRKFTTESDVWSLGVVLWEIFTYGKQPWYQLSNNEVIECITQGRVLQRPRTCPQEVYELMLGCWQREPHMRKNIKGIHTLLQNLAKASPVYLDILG

PrKX = PrKX (Homo sapiens, UniProt P51817)
YSK1 = molecular target: T9, YSK1 (Homo sapiens, UniProt O00506)
T9 construct: gene STK25

CaMKII_beta = molecular target: T10, CaMKII_beta (Homo sapiens, UniProt Q13554)
T10 construct: gene CAMK2B

AKT1 = AKT1 (Homo sapiens, UniProt P31749)
MST3 = molecular target: T11, MST3 (Homo sapiens, UniProt Q9Y6E0)
T11 construct: gene STK24

ACVR1B = ACVR1B (Homo sapiens, UniProt P36896)
Tie2 = molecular target: T12, Tie2 (Homo sapiens, UniProt Q02763)
T12 construct: gene TEK

ITK = ITK (Homo sapiens, UniProt Q08881)
Aurora_A = molecular target: T13, Aurora_A (Homo sapiens, UniProt O14965)
T13 construct: gene AURKA

MST2 = molecular target: T14, MST2 (Homo sapiens, UniProt Q13188)
T14 construct: gene STK3

MARK1 = MARK1 (Homo sapiens, UniProt Q9P0L2)
Sequence of MARK1 (Q9P0L2 whole entry): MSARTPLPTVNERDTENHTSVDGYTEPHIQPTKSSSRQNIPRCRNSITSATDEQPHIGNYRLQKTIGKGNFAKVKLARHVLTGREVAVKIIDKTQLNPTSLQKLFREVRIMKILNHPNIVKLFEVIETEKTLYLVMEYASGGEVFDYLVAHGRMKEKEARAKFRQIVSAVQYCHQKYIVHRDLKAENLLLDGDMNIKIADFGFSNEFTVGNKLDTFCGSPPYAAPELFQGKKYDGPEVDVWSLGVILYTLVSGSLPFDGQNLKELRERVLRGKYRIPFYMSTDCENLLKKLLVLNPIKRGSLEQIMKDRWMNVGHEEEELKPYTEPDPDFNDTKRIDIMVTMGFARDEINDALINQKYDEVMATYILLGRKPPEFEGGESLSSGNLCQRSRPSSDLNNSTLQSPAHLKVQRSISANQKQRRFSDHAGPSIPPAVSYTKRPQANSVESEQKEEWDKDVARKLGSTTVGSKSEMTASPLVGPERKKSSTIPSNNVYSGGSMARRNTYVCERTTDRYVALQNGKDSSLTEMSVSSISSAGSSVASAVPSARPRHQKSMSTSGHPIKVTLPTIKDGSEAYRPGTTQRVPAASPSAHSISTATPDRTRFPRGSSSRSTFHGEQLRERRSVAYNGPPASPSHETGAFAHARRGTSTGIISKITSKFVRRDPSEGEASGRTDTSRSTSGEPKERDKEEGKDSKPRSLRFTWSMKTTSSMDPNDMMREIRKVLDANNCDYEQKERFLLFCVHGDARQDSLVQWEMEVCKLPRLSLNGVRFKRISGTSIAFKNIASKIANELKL

Frk = Frk (Homo sapiens, UniProt P42685)
MRCK_beta = molecular target: T15, MRCK_beta (Homo sapiens, UniProt Q9Y5S2)
T15 construct: gene CDC42BPB

Ron = molecular target: T16, Ron (Homo sapiens, UniProt Q04912)
T16 construct: gene MST1R

ALK = ALK (Homo sapiens, UniProt Q9UM73)
EphA2 = EphA2 (Homo sapiens, UniProt P29317)
Sequence of EphA2 (P29317 whole entry): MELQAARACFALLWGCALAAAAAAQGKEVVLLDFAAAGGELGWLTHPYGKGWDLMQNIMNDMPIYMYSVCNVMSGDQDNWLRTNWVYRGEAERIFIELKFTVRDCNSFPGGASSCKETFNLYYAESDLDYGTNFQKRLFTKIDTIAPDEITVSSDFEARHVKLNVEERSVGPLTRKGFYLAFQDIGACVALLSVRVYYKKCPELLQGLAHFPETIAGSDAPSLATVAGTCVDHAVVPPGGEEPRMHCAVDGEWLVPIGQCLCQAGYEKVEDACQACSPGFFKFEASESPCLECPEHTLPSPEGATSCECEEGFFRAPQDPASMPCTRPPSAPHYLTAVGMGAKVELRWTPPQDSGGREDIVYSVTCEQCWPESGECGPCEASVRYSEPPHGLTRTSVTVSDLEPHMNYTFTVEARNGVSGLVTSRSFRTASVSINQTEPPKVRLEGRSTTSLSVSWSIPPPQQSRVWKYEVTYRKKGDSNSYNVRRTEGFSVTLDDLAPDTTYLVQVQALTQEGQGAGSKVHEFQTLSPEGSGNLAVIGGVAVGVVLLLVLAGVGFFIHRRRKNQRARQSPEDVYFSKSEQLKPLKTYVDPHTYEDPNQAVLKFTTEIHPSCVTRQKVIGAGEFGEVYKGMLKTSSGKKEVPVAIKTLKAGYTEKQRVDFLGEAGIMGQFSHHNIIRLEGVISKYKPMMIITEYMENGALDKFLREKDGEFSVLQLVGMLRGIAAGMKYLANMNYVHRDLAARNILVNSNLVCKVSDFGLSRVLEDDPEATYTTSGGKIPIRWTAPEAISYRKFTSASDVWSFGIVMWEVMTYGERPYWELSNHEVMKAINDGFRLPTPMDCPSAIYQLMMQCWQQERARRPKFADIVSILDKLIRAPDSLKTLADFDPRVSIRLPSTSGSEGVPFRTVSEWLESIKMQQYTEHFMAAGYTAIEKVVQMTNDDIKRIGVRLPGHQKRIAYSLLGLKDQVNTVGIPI

inhibition (PAK3): 12% | inhibition (CDK1/cyclinB): 0.5% | inhibition (ERK5): 0.5% | inhibition (Syk): 3.5% | inhibition (Flt3): 27% | inhibition (CDKL5): 8.5% | inhibition (Fer): 12.5% | inhibition (NEK6): 6% | inhibition (PKC_iota): 8% | inhibition (EphB4): 8% | inhibition (PKG2): -11% | inhibition (Fes): 15.5% | inhibition (PRAK): 3.5% | inhibition (Bmx): 13.5% | inhibition (Kit): -1.5% | inhibition (CDK5/p35): 3.5% | inhibition (EphB1): -6% | inhibition (PKC_gamma): 8% | inhibition (PKC_epsilon): 16% | inhibition (Ret): 15.5% | inhibition (TrkB): 4.5% | inhibition (PrKX): 6.5% | inhibition (YSK1): 5.5% | inhibition (CaMKII_beta): 24.5% | inhibition (AKT1): 1.5% | inhibition (MST3): 7% | inhibition (ACVR1B): -5% | inhibition (Tie2): -6% | inhibition (ITK): 1% | inhibition (Aurora_A): 17.5% | inhibition (MST2): 6% | inhibition (MARK1): 10% | inhibition (Frk): 4.5% | inhibition (MRCK_beta): 1.5% | inhibition (Ron): 28% | inhibition (ALK): 8.5% | inhibition (EphA2): 7.5%
Compound: CC(C)(O)CC(=O)NCCn1ccc2ncnc(Nc3ccc(Oc4cccc(C(F)(F)F)c4)c(Cl)c3)c21 [TAK-285]
inhibition (NEK9): 0%
